# Measurements from ChEMBL document CHEMBL2346534, “Design, synthesis and in vitro anti-proliferative activity of 4,6-quinazolinediamines as potent EGFR-TK inhibitors” (Eur J Med Chem, 2013).
# Biological target: Epidermal growth factor receptor (Homo sapiens, UniProt P00533)
# Details: at 10 µM
# Description: Inhibition of EGFR tyrosine kinase (unknown origin) using poly (Glu,Tyr) as substrate at 10 uM after 40 mins by Kinase-Glo Plus luminescence kinase assay
# 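Also: EGFR tyrosine kinase activity on a poly(Glu,Tyr) substrate, read out by Kinase-Glo Plus luminescence after a 40 min reaction.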
# Chain of Epidermal growth factor receptor (P00533 whole entry): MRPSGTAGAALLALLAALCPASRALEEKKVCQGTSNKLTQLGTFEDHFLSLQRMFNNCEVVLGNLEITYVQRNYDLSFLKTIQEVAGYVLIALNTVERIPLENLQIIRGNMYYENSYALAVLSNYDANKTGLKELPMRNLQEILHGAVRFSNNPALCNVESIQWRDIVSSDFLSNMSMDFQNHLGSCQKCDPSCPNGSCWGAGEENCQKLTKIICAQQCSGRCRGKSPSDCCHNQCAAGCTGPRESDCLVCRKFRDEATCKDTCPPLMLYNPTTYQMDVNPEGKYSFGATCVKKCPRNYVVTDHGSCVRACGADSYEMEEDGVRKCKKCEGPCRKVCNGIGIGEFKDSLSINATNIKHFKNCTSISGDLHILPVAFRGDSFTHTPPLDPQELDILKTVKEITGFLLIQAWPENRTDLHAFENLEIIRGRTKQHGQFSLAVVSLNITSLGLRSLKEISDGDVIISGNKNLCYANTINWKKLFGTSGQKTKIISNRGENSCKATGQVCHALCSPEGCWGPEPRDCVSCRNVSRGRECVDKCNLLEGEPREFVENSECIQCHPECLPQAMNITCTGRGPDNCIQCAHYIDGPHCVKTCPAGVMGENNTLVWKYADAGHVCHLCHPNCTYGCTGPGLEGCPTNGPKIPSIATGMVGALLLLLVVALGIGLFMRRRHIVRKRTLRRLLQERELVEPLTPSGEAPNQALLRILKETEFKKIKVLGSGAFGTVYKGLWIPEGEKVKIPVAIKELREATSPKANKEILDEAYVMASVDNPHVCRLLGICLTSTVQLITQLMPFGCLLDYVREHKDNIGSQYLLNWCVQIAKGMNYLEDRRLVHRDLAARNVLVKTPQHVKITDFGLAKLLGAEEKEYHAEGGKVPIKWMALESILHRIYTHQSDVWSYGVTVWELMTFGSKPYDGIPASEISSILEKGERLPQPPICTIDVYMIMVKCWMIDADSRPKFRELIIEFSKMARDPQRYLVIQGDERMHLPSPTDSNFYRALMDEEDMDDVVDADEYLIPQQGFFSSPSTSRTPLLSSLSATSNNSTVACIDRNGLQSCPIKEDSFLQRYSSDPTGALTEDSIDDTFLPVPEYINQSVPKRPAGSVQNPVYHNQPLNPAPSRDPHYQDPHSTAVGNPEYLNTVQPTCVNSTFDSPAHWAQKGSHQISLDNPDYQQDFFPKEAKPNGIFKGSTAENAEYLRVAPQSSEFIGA
row,Structure (SMILES),inhibition [%]
1,CCOC(=O)/C(C#N)=C\Nc1ccc2ncnc(Nc3ccc(O)cc3)c2c1,100
2,CCOC(=O)/C(C#N)=C\Nc1ccc2ncnc(Nc3cccc(O)c3)c2c1,100
3,CCOC(=O)C(=CNc1ccc2ncnc(Nc3cccc(Br)c3)c2c1)C(=O)OCC,100
4,CCOC(=O)/C(C#N)=C\Nc1ccc2ncnc(Nc3ccccc3CC)c2c1,84
5,C#Cc1cccc(Nc2ncnc3ccc(NC=C(C(=O)OCC)C(=O)OCC)cc23)c1,100
6,CCOC(=O)C(=CNc1ccc2ncnc(Nc3ccc(O)cc3)c2c1)C(=O)OCC,100
7,CCOC(=O)C(=CNc1ccc2ncnc(Nc3ccc(Cl)cc3)c2c1)C(=O)OCC,82
8,CCOC(=O)/C(C#N)=C\Nc1ccc2ncnc(Nc3cccc(Br)c3)c2c1,100
9,CCOC(=O)C(=CNc1ccc2ncnc(Nc3ccccc3Cl)c2c1)C(=O)OCC,100
10,CCOC(=O)C(=CNc1ccc2ncnc(Nc3ccc(Cl)cc3Cl)c2c1)C(=O)OCC,90
11,Nc1ccc2ncnc(Nc3ccccc3Cl)c2c1,90
